Laboratory results taken from patent EP2830605B1, “A COMBINATION MEDICAMENT COMPRISING PHENYLEPHRINE AND PARACETAMOL” (priority 2013, dated 2014).
Counter-ions that a name gives are not always drawn. Like-named read-outs stand apart in the source and are kept apart here.

Tests used:
[1] = cited from earlier work
[2] = in vivo

Ratio (increase of AUCtot), calculation for paracetamol 650 mg ([2]; human): ~1.73 | dose of phenylephrine hydrochloride alone that is similar [2]: 16 to 20 mg
SMILES: CNC[C@H](O)c1cccc(O)c1 [10 mg phenylephrine hydrochloride, phenylephrine hydrochloride]
Adverse Event Rate ([1]; dose 10mg, hydrochloride): 12.5% | Adverse Event Rate ([1]; dose 10mg, listed as Phenylephrine HCL, hydrochloride): 12.5% | Adverse Event Rate ([1]; dose 15mg): 43.8% | Adverse Event Rate ([1]; dose 25mg): 81.3%
